In patent US20230295157A1, “3-(1H-IMIDAZOL-2-YL)-2,3,8,8A-TETRAHYDROINDOLIZIN-5(1H)-ONE DERIVATIVES USEFUL AS FACTOR XIA INHIBITORS” (JANSSEN PHARMACEUTICA NV, priority 2020, published 2023):
Where two headings read alike, the source gives them in different places.

Legend:
Factor XIa = Factor XIa (Homo sapiens (Human), UniProt P03951); experiment: Factor XIa inhibition assay (FLINT) utilizing a fluorophore-quencher pair peptide substrate; type: biochemical; details: 30 min preincubation, read-out: FXIa Kin Inh IC50
Chain of Factor XIa (P03951 388-625): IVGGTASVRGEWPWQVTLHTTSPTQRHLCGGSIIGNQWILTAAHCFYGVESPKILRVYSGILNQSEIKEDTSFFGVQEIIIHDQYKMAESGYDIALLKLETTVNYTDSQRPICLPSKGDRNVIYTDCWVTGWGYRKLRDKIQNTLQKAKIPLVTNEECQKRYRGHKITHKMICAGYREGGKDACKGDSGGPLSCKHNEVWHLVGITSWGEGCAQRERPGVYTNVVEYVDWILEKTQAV
Chain of Factor XIa (P03951 19-387 partner): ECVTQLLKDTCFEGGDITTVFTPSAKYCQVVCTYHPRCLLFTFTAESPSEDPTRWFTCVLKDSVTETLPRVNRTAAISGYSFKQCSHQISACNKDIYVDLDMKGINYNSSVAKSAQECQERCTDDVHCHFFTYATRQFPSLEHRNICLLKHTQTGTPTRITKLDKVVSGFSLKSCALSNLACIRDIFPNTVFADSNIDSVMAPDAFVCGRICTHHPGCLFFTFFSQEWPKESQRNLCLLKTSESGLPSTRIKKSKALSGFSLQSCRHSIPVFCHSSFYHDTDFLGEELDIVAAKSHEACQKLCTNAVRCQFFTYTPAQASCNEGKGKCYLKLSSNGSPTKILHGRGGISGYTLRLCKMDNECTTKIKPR
Outline: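 FXIa ([…]) preincubated 30 min with compound (11-point 3-fold dilution, top 100 nM, 2% DMSO), then 15 μM quenched FXI Arg146-based peptide added; Tris pH 7.5, CaCl2, BSA, CHAPS. Fluorescence 485/520 nm read kinetically every 5 min over 30 min at RT; IC50 by 4-parameter fit.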

human plasma kallikrein = human plasma kallikrein (Homo sapiens (Human), UniProt P03952); experiment: Kallikrein inhibition assay (FLINT) utilizing a quenched AMC peptide substrate; type: biochemical; details: 30 min preincubation, kinetic reads over 30 min, Z-Gly-Pro-Arg-AMC substrate 50 μM; read-out: Kallikrein Kin Inh IC50
Chain of human plasma kallikrein (P03952 391-638): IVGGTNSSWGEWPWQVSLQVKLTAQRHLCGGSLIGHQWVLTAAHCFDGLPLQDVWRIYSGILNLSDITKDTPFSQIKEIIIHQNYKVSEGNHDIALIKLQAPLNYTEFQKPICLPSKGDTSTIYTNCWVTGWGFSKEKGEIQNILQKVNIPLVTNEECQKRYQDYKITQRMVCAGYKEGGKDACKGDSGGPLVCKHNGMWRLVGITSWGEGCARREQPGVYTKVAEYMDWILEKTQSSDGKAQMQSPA
Chain of human plasma kallikrein (P03952 20-390 partner): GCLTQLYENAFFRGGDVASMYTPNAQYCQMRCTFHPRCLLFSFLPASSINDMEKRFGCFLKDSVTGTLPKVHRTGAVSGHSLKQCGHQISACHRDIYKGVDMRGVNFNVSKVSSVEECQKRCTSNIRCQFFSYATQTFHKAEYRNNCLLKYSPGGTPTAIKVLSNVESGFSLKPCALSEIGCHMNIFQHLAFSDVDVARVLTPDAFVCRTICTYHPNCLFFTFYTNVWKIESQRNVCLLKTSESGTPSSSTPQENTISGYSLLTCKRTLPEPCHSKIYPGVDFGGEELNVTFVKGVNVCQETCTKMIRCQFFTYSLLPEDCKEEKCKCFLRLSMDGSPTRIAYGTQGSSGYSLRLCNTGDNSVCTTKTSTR
Outline: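 Fluorogenic Z-Gly-Pro-Arg-AMC cleavage (50 μM substrate, 2 nM kallikrein, Tris pH 7.5, CaCl2, BSA, CHAPS, 2% DMSO) read kinetically at 340/440 nm for 30 min after 30-min compound pre-incubation. Compounds in 11-point 3-fold series from 1 μM; percent inhibition fitted to four-parameter equation for IC50.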

[1] = kinetic reads over 30 min, 5Fam-KLTRAETV-K5Tamra substrate 15 μM
[2] = kinetic reads over 30 min, 5Fam-[…]-K5Tamra substrate 15 μM

| SMILES | IC50 (Factor XIa; [1]) | IC50 (human plasma kallikrein) | IC50 (Factor XIa; μM, kinetic reads) | IC50 (Factor XIa; [2]) |
| --- | --- | --- | --- | --- |
| O=C(O)c1ccc(-c2cnc([C@@H]3CCC4CC(c5c(-n6cc(Cl)nn6)ccc(Cl)c5F)=CC(=O)N43)[nH]2)s1 (stereo partly drawn) [Example 193, 5-(2-((3S)-7-(3-chloro-6-(4-chloro-1H-1,2,3-triazol-1-yl)-2-fluorophenyl)-5-oxo-1,2,3,5,8,8a-hexahydroindolizin-3-yl)-1H-imidazol-4-yl)thiophene-2-carboxylic acid] | 0.0004 µM | 14.3 nM | – | – |
| COC(=O)Nc1ccc(-c2cnc([C@@H]3CC[C@H]4CC(c5c(F)ccc(Cl)c5OC(F)F)=CC(=O)N43)[nH]2)cc1 (relative stereo) [Example 319, Methyl (4-(2-((3S,8aS)-7-(3-Chloro-2-(difluoromethoxy)-6-fluorophenyl)-5-oxo-1,2,3,5,8,8a-hexahydroindolizin-3-yl)-1H-imidazol-5-yl)phenyl)carbamate] | – | 455 nM | 2.2 µM | – |
| CNc1ncccc1-c1cnc([C@@H]2CC[C@H]3CC(c4c(-n5cnnn5)ccc(Cl)c4F)=CC(=O)N32)[nH]1 [Example 269, (3S,8aS)-7-[3-Chloro-2-fluoro-6-(tetrazol-1-yl)phenyl]-3-[5-[2-(methylamino)-3-pyridyl]-1H-imidazol-2-yl]-2,3,8,8a-tetrahydro-1H-indolizin-5-one] | > 0.1 µM | 793 nM | – | – |
| COC(=O)Nc1nccc(-c2cnc([C@@H]3CC[C@@H]4CC(c5c(-n6cnnn6)ccc(Cl)c5F)=CC(=O)N43)[nH]2)c1F [Example 44, Methyl(4-(2-((3S,8aR)-7-(3-chloro-2-fluoro-6-(1H-tetrazol-1-yl)phenyl)-5-oxo-1,2,3,5,8,8a-hexahydroindolizin-3-yl)-1H-imidazol-5-yl)-3-fluoropyridin-2-yl)carbamate] | 0.0018 µM | 11.4 nM | – | – |
| Cc1cc2c(-c3cnc([C@@H]4CCC5CC(c6c(-n7cnnn7)ccc(Cl)c6F)=CC(=O)N54)[nH]3)c[nH]c2cn1 (stereo partly drawn) [Example 381, (3S)-7-(3-chloro-2-fluoro-6-(1H-tetrazol-1-yl)phenyl)-3-(5-(5-methyl-1H-pyrrolo[2,3-c]pyridin-3-yl)-1H-imidazol-2-yl)-2,3,8,8a-tetrahydroindolizin-5(1H)-one] | 0.0171 µM | 13.6 nM | – | – |
| O=C1C=C(c2c(-n3cnnn3)ccc(Cl)c2F)CC2CC[C@@H](c3nc(-c4cnn[nH]4)c[nH]3)N12 (stereo partly drawn) [Example 332, (3S)-3-(4-(1H-1,2,3-Triazol-5-yl)-1H-imidazol-2-yl)-7-(3-chloro-2-fluoro-6-(1H-tetrazol-1-yl)phenyl)-2,3,8,8a-tetrahydroindolizin-5(1H)-one] | 0.0858 µM | 542 nM | – | – |
| [2H]C1([2H])C[C@@H](c2ncc(-c3ccnc(CO)c3F)[nH]2)N2C(=O)C=C(c3c(-n4cnnn4)ccc(Cl)c3F)C([2H])([2H])[C@]21[2H] [Example 33, (3S,8aR)-7-(3-Chloro-2-fluoro-6-(1H-tetrazol-1-yl)phenyl)-3-(5-(3-fluoro-2-(hydroxymethyl)pyridin-4-yl)-1H-imidazol-2-yl)-2,3,8,8a-tetrahydroindolizin-5(1H)-one-1,1,8,8,8a-d5] | – | 33.2 nM | – | 0.0039 µM |
| Nc1ccccc1-c1cnc([C@@H]2CC[C@H]3CC(c4c(-n5cnnn5)ccc(Cl)c4F)=CC(=O)N32)[nH]1 (relative stereo) [Example 308, (3S,8aS*)-3-(4-(2-Aminophenyl)-1H-imidazol-2-yl)-7-(3-chloro-2-fluoro-6-(1H-tetrazol-1-yl)phenyl)-2,3,8,8a-tetrahydroindolizin-5(1H)-one] | – | > 100 nM | – | 0.0927 µM |
| [2H]c1cc(-c2c[nH]c([C@@H]3CC[C@@H]4CC(c5c(F)c(Cl)cc([2H])c5-n5cnnn5)=CC(=O)N43)n2)c(F)nc1N [Example 125, (3S,8aR)-3-(4-(6-amino-2-fluoropyridin-3-yl-5-d)-1H-imidazol-2-yl)-7-(3-chloro-2-fluoro-6-(1H-tetrazol-1-yl)phenyl-5-d)-2,3,8,8a-tetrahydroindolizin-5(1H)-one] | 0.0005 µM | 9.6 nM | – | – |
| NC(=O)c1ccc(-c2cnc([C@H]3CC[C@@H]4CC(c5c(-n6cnnn6)ccc(Cl)c5F)=CC(=O)N43)[nH]2)cn1 (single isomer, unassigned) [Example 226] | 0.0102 µM | 38.4 nM | – | – |
| [2H]C([2H])(O)c1nccc(-c2cnc([C@@H]3CC[C@]4([2H])CC(c5c(-n6cnnn6)ccc(Cl)c5F)=CC(=O)N34)[nH]2)c1F (single isomer, unassigned) [Example 36] | 0.0051 µM | 33.7 nM | – | – |
| CNc1ncccc1-c1cnc([C@@H]2CCC3CC(c4c(-n5cnnn5)ccc(Cl)c4F)=CC(=O)N32)[nH]1 (stereo partly drawn) [Example 260, (3S)-7-[3-Chloro-2-fluoro-6-(tetrazol-1-yl)phenyl]-3-[4-[2-(methylamino)-3-pyridyl]-1H-imidazol-2-yl]-2,3,8,8a-tetrahydro-1H-indolizin-5-one] | > 0.1 µM | 462 nM | – | – |
| O=C1C=C(c2c(-n3cnnn3)ccc(Cl)c2F)C[C@H]2CC[C@H](c3ncc(-c4ccnc(C5(O)CC5)c4F)[nH]3)N12 (single isomer, unassigned) [Example 116, (3*R,8aR)-7-(3-chloro-2-fluoro-6-(1H-tetrazol-1-yl)phenyl)-3-(5-(3-fluoro-2-(1-hydroxycyclopropyl)pyridin-4-yl)-1H-imidazol-2-yl-4-d)-2,3,8,8a-tetrahydroindolizin-5(1H)-one] | 0.0083 µM | 64.4 nM | – | – |
| O=C(Nc1cnc(C(F)(F)F)cc1-c1cnc([C@@H]2CC[C@@H]3CC(c4c(-n5cnnn5)ccc(Cl)c4F)=CC(=O)N32)[nH]1)C1CC1 [Example 241, N-[4-[2-[(3S,8aR)-7-[3-Chloro-2-fluoro-6-(tetrazol-1-yl)phenyl]-5-oxo-2,3,8,8a-tetrahydro-1H-indolizin-3-yl]-1H-imidazol-5-yl]-6-(trifluoromethyl)-3-pyridyl]cyclopropanecarboxamide] | 0.0033 µM | 14.9 nM | – | – |

Continued by falling IC50 (human plasma kallikrein), values first:

| IC50 (Factor XIa; [1]) | IC50 (human plasma kallikrein) | IC50 (Factor XIa; μM, kinetic reads) | IC50 (Factor XIa; [2]) | SMILES |
| --- | --- | --- | --- | --- |
| 0.0032 µM | 9.5 nM | – | – | COC(=O)c1nccc(-c2cnc([C@@H]3CC[C@@H]4CC(c5c(-n6cnnn6)ccc(Cl)c5F)=CC(=O)N43)[nH]2)c1F [Example 52, Methyl 4 [2-[(3S,8aR)-7-[3-chloro-2-fluoro-6-(tetrazol-1-yl)phenyl]-5-oxo-2,3,8,8a-tetrahydro-1H-indolizin-3-yl]-1H-imidazol-5-yl]-3-fluoro-pyridine-2-carboxylate] |
| 0.0106 µM | 9.5 nM | – | – | NC(=O)c1cc(-c2cnc([C@@H]3CC[C@@H]4CC(c5c(-n6cnnn6)ccc(Cl)c5F)=CC(=O)N43)[nH]2)ccn1 (single isomer, unassigned) [Example 206] |
| – | 6.9 nM | – | 0.011 µM | O=C1C=C(c2c(-n3cnnn3)ccc(Cl)c2F)C[C@H]2CC[C@H](c3ncc(-c4ccnc(N5CCC5)c4F)[nH]3)N12 (single isomer, unassigned) [Example 110, (3*R,8aR)-3-(5-(2-(azetidin-1-yl)-3-fluoropyridin-4-yl)-1H-imidazol-2-yl)-7-(3-chloro-2-fluoro-6-(1H-tetrazol-1-yl)phenyl)-2,3,8,8a-tetrahydroindolizin-5(1H)-one] |
| – | 5.6 nM | – | 0.0052 µM | Cn1c(=O)[nH]c2ccc(-c3cnc([C@@H]4CC[C@H]5CC(c6c(-n7cnnn7)ccc(Cl)c6F)=CC(=O)N54)[nH]3)cc21 (relative stereo) [Example 299, 6-(2-((3S,8aS*)-7-(3-Chloro-2-fluoro-6-(1H-tetrazol-1-yl)phenyl)-5-oxo-1,2,3,5,8,8a-hexahydroindolizin-3-yl)-1H-imidazol-5-yl)-1-methyl-1H-benzo[d]imidazol-2(3H)-one] |
| 0.0007 µM | 1.8 nM | – | – | O=C1CCc2cc(-c3[nH]c([C@@H]4CC[C@@H]5CC(c6cc(Cl)ccc6-n6cc(C(F)(F)F)nn6)=CC(=O)N54)nc3F)ccc2N1 [Example 81, 6-[2-[(3S,8aR)-7-[5-chloro-2-[4-(trifluoromethyl)triazol-1-yl]phenyl]-5-oxo-2,3,8,8a-tetrahydro-1H-indolizin-3-yl]-4-fluoro-1H-imidazol-5-yl]-3,4-dihydro-1H-quinolin-2-one] |
| 0.0002 µM | 1.3 nM | – | – | COC(=O)Nc1ccc(-c2cnc([C@@H]3CC[C@@H]4CC(c5c(-n6cnnn6)ccc(Cl)c5F)=CC(=O)N43)[nH]2)cc1 [Example 341, Methyl (4-(2-((3S,8aR)-7-(3-chloro-2-fluoro-6-(1H-tetrazol-1-yl)phenyl)-5-oxo-1,2,3,5,8,8a-hexahydroindolizin-3-yl)-1H-imidazol-5-yl)phenyl)carbamate] |
| 0.0002 µM | 0.9 nM | – | – | O=C(Nc1cnccc1-c1c[nH]c([C@@H]2CCC3CC(c4c(-n5cnnn5)ccc(Cl)c4F)=CC(=O)N32)n1)C1CC1 (stereo partly drawn) [Example 370, N-(4-(2-((3S)-7-(3-chloro-2-fluoro-6-(1H-tetrazol-1-yl)phenyl)-5-oxo-1,2,3,5,8,8a-hexahydroindolizin-3-yl)-1H-imidazol-4-yl)pyridin-3-yl)cyclopropanecarboxamide] |
| 0.0003 µM | 0.7 nM | – | – | O=C(Nc1ccccc1-c1cnc([C@@H]2CC[C@@H]3CC(c4c(-n5cnnn5)ccc(Cl)c4F)=CC(=O)N32)[nH]1)C1CC1 [Example 307, N-(2-(2-((3S,8aR)-7-(3-Chloro-2-fluoro-6-(1H-tetrazol-1-yl)phenyl)-5-oxo-1,2,3,5,8,8a-hexahydroindolizin-3-yl)-1H-imidazol-4-yl)phenyl)cyclopropanecarboxamide] |
